Results from ChEMBL document CHEMBL1149799, “Bioactive peroxides as potential therapeutic agents” (Eur J Med Chem, 2008).
In brackets after ≈: the same amount, converted by molar mass.

Key:
NCI-H460 = assay: Cytotoxicity against human NCI-H460 cells; type: functional, cell-based; conditions: Homo sapiens, NCI-H460
SF-268 = assay: Cytotoxicity against human SF268 cells; type: functional, cell-based; conditions: Homo sapiens, SF-268; read-out: IC50
HeLa = assay: Cytotoxicity against human HeLa cells; type: functional, cell-based
MCF7 = assay: Cytotoxicity against human MCF7 cells; type: functional, cell-based; conditions: Homo sapiens, MCF7
MIA PaCa-2 = assay: Cytotoxicity against human MIA-PaCa2 cells
[1] = Cytotoxicity against human P833 cells; type: functional, cell-based
EL4 = assay: Cytotoxicity against […] cells; type: functional, cell-based; conditions: Mus musculus
P388 [2] = assay: Cytotoxicity against mouse P388 cells; type: functional, cell-based; conditions: Mus musculus, P388
[3] = target: Protein kinase C zeta type (Homo sapiens, UniProt Q05513); assay: Antagonist activity at protein kinase C zeta; type: functional
Chain of Protein kinase C zeta type (Q05513 whole entry): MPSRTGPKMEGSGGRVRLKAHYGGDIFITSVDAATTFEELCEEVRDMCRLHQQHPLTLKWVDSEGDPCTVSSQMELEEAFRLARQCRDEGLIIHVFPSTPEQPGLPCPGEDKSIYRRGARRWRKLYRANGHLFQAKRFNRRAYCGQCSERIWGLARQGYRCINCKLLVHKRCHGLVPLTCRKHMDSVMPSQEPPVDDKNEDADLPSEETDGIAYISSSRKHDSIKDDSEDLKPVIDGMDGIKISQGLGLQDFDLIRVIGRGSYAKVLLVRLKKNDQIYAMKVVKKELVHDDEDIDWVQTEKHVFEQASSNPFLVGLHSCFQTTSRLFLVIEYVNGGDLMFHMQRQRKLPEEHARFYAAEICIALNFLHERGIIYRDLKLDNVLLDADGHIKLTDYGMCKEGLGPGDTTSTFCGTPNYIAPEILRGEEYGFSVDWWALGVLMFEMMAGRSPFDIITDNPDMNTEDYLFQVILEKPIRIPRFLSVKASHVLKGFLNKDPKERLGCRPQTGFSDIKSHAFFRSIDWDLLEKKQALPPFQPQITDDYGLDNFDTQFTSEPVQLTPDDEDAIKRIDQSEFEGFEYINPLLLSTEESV

[4] = target: Protein kinase C gamma type (Homo sapiens, UniProt P05129); assay: Antagonist activity at protein kinase C gamma; type: functional
P388 [5] = assay: Cytotoxicity against mouse P388 cells at 0.05 ug/ml; type: functional
[6] = Cytotoxicity against human KB16 cells; type: functional, cell-based
[7] = target: Protein kinase C epsilon type (Homo sapiens, UniProt Q02156); assay: Antagonist activity at protein kinase C epsilon; type: functional
Chain of Protein kinase C epsilon type (Q02156 whole entry): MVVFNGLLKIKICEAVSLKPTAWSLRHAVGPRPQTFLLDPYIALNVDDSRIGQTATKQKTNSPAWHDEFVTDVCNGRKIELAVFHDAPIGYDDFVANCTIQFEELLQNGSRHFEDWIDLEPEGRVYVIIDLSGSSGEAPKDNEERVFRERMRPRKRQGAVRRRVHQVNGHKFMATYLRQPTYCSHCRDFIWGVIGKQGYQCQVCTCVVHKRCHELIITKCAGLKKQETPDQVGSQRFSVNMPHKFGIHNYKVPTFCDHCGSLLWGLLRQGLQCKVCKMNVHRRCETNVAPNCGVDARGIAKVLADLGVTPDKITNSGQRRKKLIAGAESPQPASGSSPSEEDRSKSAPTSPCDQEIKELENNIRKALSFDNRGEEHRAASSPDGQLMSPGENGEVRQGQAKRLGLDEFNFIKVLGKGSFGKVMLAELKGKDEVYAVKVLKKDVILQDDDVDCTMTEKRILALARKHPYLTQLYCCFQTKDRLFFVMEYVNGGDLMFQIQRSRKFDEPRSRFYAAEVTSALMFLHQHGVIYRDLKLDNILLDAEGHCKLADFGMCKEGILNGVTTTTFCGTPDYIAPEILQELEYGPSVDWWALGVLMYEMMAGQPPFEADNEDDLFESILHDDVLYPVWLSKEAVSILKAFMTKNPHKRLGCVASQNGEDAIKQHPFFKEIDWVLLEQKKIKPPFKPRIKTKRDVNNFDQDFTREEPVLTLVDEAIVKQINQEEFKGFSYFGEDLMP

P388 [8] = assay: Cytotoxicity against mouse P388 cells at 0.5 ug/mL; type: functional
HCT-8 = assay: Cytotoxicity against human HCT8 cells at 10 ug/mL; type: functional
L1210 = assay: Cytotoxicity against mouse L1210 cells; type: functional, cell-based; conditions: Mus musculus, L1210
KB = assay: Cytotoxicity against human KB cells; type: functional, cell-based; conditions: Homo sapiens
LoVo = assay: Cytotoxicity against human LoVo cells; type: functional
A549 = assay: Cytotoxicity against human A549 cells; type: functional, cell-based; conditions: Homo sapiens, A549
[9] = Cytotoxicity against mouse B16-F1cells; type: functional, cell-based; conditions: B16-F1
BT-549 = assay: Cytotoxicity against human BT-549 cells; type: functional
SK-MEL-28 = assay: Cytotoxicity against human SK-MEL-28 cells; type: functional
CAKI-1 = assay: Cytotoxicity against human CAKI1 cells; type: functional
[10] = Cytotoxicity against human CCRF-GEM cells; type: functional
[11] = Cytotoxicity against mouse Ehrlich Ascites carcinoma by […] assay; type: functional
MOLT-4 = assay: Cytotoxicity against human MOLT4 cells
OVCAR-3 = assay: Cytotoxicity against human OVCAR-3 cells; type: functional, cell-based
[12] = Cytotoxicity against human HB60 cells; type: functional
COLO 205 = assay: Cytotoxicity against human COLO205 cells
NCI-H23 = assay: Cytotoxicity against human NCI-H23 cells; type: functional, cell-based
[13] = Cytotoxicity against human RES MDA-MB-231/ATCC cells; type: functional
TK-10 = assay: Cytotoxicity against human TK10 cells; type: functional
UACC-62 = assay: Cytotoxicity against human UACC62 cells; type: functional
786-0 = assay: Cytotoxicity against human renal 7860 cells by soft agar assay; type: functional
PC-3 = assay: Cytotoxicity against human PC3 cells; type: functional, cell-based; conditions: Homo sapiens, PC-3
HCC 2998 = assay: Cytotoxicity against human HCC2998 cells; type: functional, cell-based
U-251 = assay: Cytotoxicity against human U251 cells; type: functional, cell-based
UACC-257 = assay: Cytotoxicity against human UACC257 cells; type: functional
SNB-19 = assay: Cytotoxicity against human SNB19 cells; type: functional
[14] = Cytotoxicity against human K652 cells; type: functional
EKVX = assay: Cytotoxicity against human EKVX cells; type: functional
RXF 393 = assay: Cytotoxicity against human RXF393 cells; type: functional
ACHN = assay: Cytotoxicity against human ACHN cells; type: functional, cell-based
[15] = Cytotoxicity against human RPMI8266 cells; type: functional
SK-MEL-2 = assay: Cytotoxicity against human SK-MEL-2 cells; type: functional
SNB-75 = assay: Cytotoxicity against human SNB75 cells; type: functional, cell-based
KM12 = assay: Cytotoxicity against human KM12 cells; type: functional, cell-based
[16] = Cytotoxicity against human MCF7/ADR-RES cells; type: functional; conditions: NCI/ADR-RES
SN12C = assay: Cytotoxicity against human SN12C cells; type: functional
SW-620 = assay: Cytotoxicity against human SW620 cells; type: functional
DU-145 = assay: Cytotoxicity against human DU145 cells; type: functional, cell-based; conditions: Homo sapiens, DU-145; read-out: GI50
OVCAR-4 = assay: Cytotoxicity against human OVCAR4 cells; type: functional, cell-based
SK-MEL-5 = assay: Cytotoxicity against human SK-MEL-5 cells; type: functional
[17] = Cytotoxicity against human CFUGM; type: functional; conditions: CFU-GM
MDA-MB-435 = assay: Cytotoxicity against human MDA-MB-435 cells; type: functional
OVCAR-5 = assay: Cytotoxicity against human OVCAR5 cells; type: functional, cell-based
LOX IMVI = assay: Cytotoxicity against human LOXI MVI cells; type: functional, cell-based
[18] = Cytotoxicity against mouse Ehrlich Ascites carcinoma by clonogenic assay; type: functional
MDA-N = assay: Cytotoxicity against human MDA-N cells; type: functional
HCT-116 = assay: Cytotoxicity against human HCT116 cells; type: functional, cell-based
HT-29 = assay: Cytotoxicity against human HT29 cells; type: functional
HOP-62 = assay: Cytotoxicity against human HOP62 cells; type: functional
HOP-92 = assay: Cytotoxicity against human HOP92 cells; type: functional
HCT-15 = assay: Cytotoxicity against human HCT15 cells; type: functional, cell-based
SF-295 = assay: Cytotoxicity against human SF295 cells; type: functional, cell-based
UO-31 = assay: Cytotoxicity against human UO31 cells; type: functional
SK-OV-3 = assay: Cytotoxicity against human SK-OV-3 cells; type: functional, cell-based
NCI-H322M = assay: Cytotoxicity against human NCI-H322M cells; type: functional
OVCAR-8 = assay: Cytotoxicity against human OVCAR8 cells; type: functional, cell-based
A498 = assay: Cytotoxicity against human A498 cells; type: functional
T47D = assay: Cytotoxicity against human T47D cells; type: functional
IGROV-1 = assay: Cytotoxicity against human IGROV1 cells; type: functional
[19] = Inhibition of human SKW3 cells adhesion to soluble ICAM1; type: functional, cell-based

## CC(=C/C(=O)O)/C=C/C=C(\C)[C@@H]1C=C2C(C)(C)CCC[C@]2(C)OO1
NCI-H460
  IC50: 2.1 µg/mL (≈ 6.32 µM)
SF-268
  IC50: 3.5 µg/mL (≈ 10.5 µM)
HeLa
  IC50: 2 µg/mL (≈ 6.02 µM)
MCF7
  IC50: 2.7 µg/mL (≈ 8.12 µM)
MIA PaCa-2
  IC50: 1.7 µg/mL (≈ 5.11 µM)

## CCCC[C@H](CC)C[C@]1(CC)C=C(CC)[C@H](CC(=O)O)OO1 [HATERUMADIOXIN B]
[1]
  IC50: 0.0055 µg/mL (≈ 0.0176 µM)

## CCCCCCCCCCCCCCCC[C@@]1(OC)C=C[C@@H](CC(=O)OC)OO1 [CHONDRILLIN]
EL4
  IC50: 0.4 µg/mL (≈ 0.969 µM)
P388 [2]; read-out: ED50 (the source's name)
  EC50: > 10 µg/mL
[3]
  IC50: 104000 nM
[4]
  IC50: > 364000 nM
P388 [5]
  inhibition at 0.05 µg/mL: 50%
[6]
  IC50: 0.74 µg/mL (≈ 1.79 µM)
[7]
  IC50: 72700 nM

## CCCCCCCCCCCCCCC[C@]1(C)C[C@](C)(CC(=O)O)OO1
P388 [8]
  inhibition at 0.5 µg/mL: 90%
HCT-8
  inhibition at 10 µg/mL: 90%

## CC(CCCC/C=C/CC/C=C\c1ccccc1)C[C@]1(C)C[C@](C)(CC(=O)O)OO1 (stereo partly specified) [EPIPLAKINIC ACID C]
L1210
  IC50: 0.052 µg/mL (≈ 0.125 µM)
EL4
  IC50: 4.6 µg/mL (≈ 11.1 µM)
P388 [2]
  IC50: 2.5 µg/mL (≈ 6.03 µM)
KB
  MIC: 0.01 µg/mL (≈ 0.0241 µM)
LoVo
  MIC: 1 µg/mL (≈ 2.41 µM)
A549
  IC50: 2 µg/mL (≈ 4.82 µM)

## COC(=O)C[C@H]1OO[C@](C)(C/C(C)=C/C(C)=C/Cc2ccccc2)C[C@H]1C [CAPUCINOATE B]
[9]
  IC50: 0.012 µg/mL (≈ 0.0322 µM)

## C[C@H]1[C@H](O[C@@H]2O[C@@H]3O[C@]4(C)CC[C@H]5[C@H](C)CC[C@@H]([C@H]2C)[C@@]35OO4)O[C@@H]2O[C@]3(C)CC[C@H]4[C@H](C)CC[C@@H]1[C@@]24OO3
BT-549
  GI50: 58 nM
SK-MEL-28
  GI50: 12300 nM
CAKI-1
  GI50: 280 nM
[10]
  GI50: 45 nM
[11]
  IC50: 3600 nM
MOLT-4
  GI50: 57 nM
OVCAR-3
  GI50: 460 nM
NCI-H460; read-out: GI50
  GI50: 68 nM
[12]
  GI50: 28 nM
COLO 205
  GI50: 44 nM
NCI-H23
  GI50: 46 nM
[13]
  GI50: 400 nM
TK-10
  GI50: 240 nM
UACC-62
  GI50: 81 nM
786-0
  GI50: 370 nM
PC-3
  GI50: 15 nM
HCC 2998
  GI50: 450 nM
U-251
  GI50: 65 nM
UACC-257
  GI50: 93 nM
SNB-19
  GI50: 1710 nM
[14]
  GI50: 68 nM
EKVX
  GI50: 76 nM
RXF 393
  GI50: 470 nM
ACHN
  GI50: 100 nM
[15]
  GI50: 13 nM
SK-MEL-2
  GI50: 500 nM
SNB-75
  GI50: 220 nM
KM12
  GI50: 33 nM
[16]
  GI50: 220 nM
SN12C
  GI50: 280 nM
SW-620
  GI50: 43 nM
DU-145
  GI50: 5100 nM
OVCAR-4
  GI50: 290 nM
SK-MEL-5
  GI50: 53 nM
[17]
  IC50: 3600 nM
MDA-MB-435
  GI50: 61 nM
OVCAR-5
  GI50: 390 nM
LOX IMVI
  GI50: 30 nM
[18]
  IC50: 55600 nM
MDA-N
  GI50: 590 nM
HCT-116
  GI50: 19 nM
HT-29
  GI50: 50 nM
MCF7; read-out: GI50
  GI50: 110 nM
HOP-62
  GI50: 10200 nM
HOP-92
  GI50: 121 nM
HCT-15
  GI50: 24 nM
SF-295
  GI50: 590 nM
A549
  GI50: 98 nM
UO-31
  GI50: 63 nM
SK-OV-3
  GI50: 480 nM
NCI-H322M
  GI50: 10800 nM
OVCAR-8
  GI50: 90 nM
A498
  GI50: 11600 nM
T47D
  GI50: 30 nM
IGROV-1
  GI50: 1050 nM

## CCCCCCCCCCCCCCCC[C@]1(C)C[C@](C)(CC(=O)O)OO1
P388 [8]
  inhibition at 0.5 µg/mL: 90%
HCT-8
  inhibition at 10 µg/mL: 90%

## COC(=O)C[C@H]1OO[C@](C)(C/C(C)=C/C=C/Cc2ccccc2)C[C@H]1C [CAPUCINOATE A]
[9]
  IC50: 0.012 µg/mL (≈ 0.0335 µM)

## Cc1ccc2c(c1O)C(=O)c1c(cc(O)c(C(=O)O)c1C)[C@]2(C)OO[C@@]1(C)c2cc(O[C@H]3O[C@@H](CO)[C@@H](O)[C@@H](O)[C@@H]3O)c(C(=O)O)c(C)c2C(=O)c2c1ccc(C)c2O [ADXANTHROMYCIN A]
[19]
  IC50: 18.8 µg/mL (≈ 23 µM)
